# PMC5218480 (PLoS ONE, 2017)
# System: MV-4-11 cells
# Experiment: Gene expression microarray analysis (Affymetrix PrimeView) and GSEA
# Assay type: cell-based, human
# Parameters: RFU PODN (11730768_x_at) / Fold change /veh PODN (11730768_x_at) / RFU LINC00158 (11744669_a_at) / Fold change /veh LINC00158 (11744669_a_at) / RFU DUSP10 (11751237_a_at) / Fold change /veh DUSP10 (11751237_a_at) / RFU ID3 (11757404_x_at) / Fold change /veh ID3 (11757404_x_at) / RFU PLEKHG5 (11737974_s_at) / Fold change /veh PLEKHG5 (11737974_s_at) / RFU LRRC4B (11730491_at) / Fold change /veh LRRC4B (11730491_at) / RFU GIMAP4 (11747438_a_at) / Fold change /veh GIMAP4 (11747438_a_at) / RFU KRT8 (11758183_x_at) / Fold change /veh KRT8 (11758183_x_at) / RFU CNN1 (11734310_a_at) / Fold change /veh CNN1 (11734310_a_at) / RFU VPS37D (11726825_at) / Fold change /veh VPS37D (11726825_at) / RFU C10orf10 (11716522_x_at) / Fold change /veh C10orf10 (11716522_x_at) / RFU KIR2DL2 /// KIR2DL4 /// KIR2DL5A /// KIR2DL5B /// KIR2DS1 /// KIR2DS2 /// KIR2DS3 /// KIR2DS4 /// KIR3DL3 /// KIR3DL3 /// KIR3DS1 (11738374_at) / Fold change /veh KIR2DL2 /// KIR2DL4 /// KIR2DL5A /// KIR2DL5B /// KIR2DS1 /// KIR2DS2 /// KIR2DS3 /// KIR2DS4 /// KIR3DL3 /// KIR3DL3 /// KIR3DS1 (11738374_at) / RFU C1QL1 (11718748_at) / Fold change /veh C1QL1 (11718748_at) / RFU TMPRSS4 (11747572_a_at) / Fold change /veh TMPRSS4 (11747572_a_at) / RFU HAMP (11756126_x_at) / Fold change /veh HAMP (11756126_x_at) / RFU RNFT2 (11725882_a_at) / Fold change /veh RNFT2 (11725882_a_at) / RFU NR4A2 (11747474_a_at) / Fold change /veh NR4A2 (11747474_a_at) / RFU ABCC12 (11746883_a_at) / Fold change /veh ABCC12 (11746883_a_at) / RFU TMEM136 (11760407_x_at) / Fold change /veh TMEM136 (11760407_x_at) / RFU CLDN22 /// WWC2 (11732394_at) / Fold change /veh CLDN22 /// WWC2 (11732394_at) / RFU HLA-DPB1 (11760878_x_at) / Fold change /veh HLA-DPB1 (11760878_x_at) / RFU SPINT1 (11716480_a_at) / Fold change /veh SPINT1 (11716480_a_at) / RFU GAP43 (11754022_s_at) / Fold change /veh GAP43 (11754022_s_at) / RFU A4GNT (11735810_at) / Fold change /veh A4GNT (11735810_at) / RFU PRB3 (11715151_x_at) / Fold change /veh PRB3 (11715151_x_at) / RFU TUBB4B (11761932_at) / Fold change /veh TUBB4B (11761932_at) / RFU CAPN14 (11732068_a_at) / Fold change /veh CAPN14 (11732068_a_at) / RFU TMCC2 (11721928_a_at) / Fold change /veh TMCC2 (11721928_a_at) / RFU IRGQ (11745062_a_at) / Fold change /veh IRGQ (11745062_a_at) / RFU FAM174B (11720279_a_at) / Fold change /veh FAM174B (11720279_a_at) / RFU TMPRSS4 (11748680_a_at) / Fold change /veh TMPRSS4 (11748680_a_at) / RFU FAM212B (11763350_a_at) / Fold change /veh FAM212B (11763350_a_at) / RFU PLEKHG5 (11743358_a_at) / Fold change /veh PLEKHG5 (11743358_a_at) / RFU ZSCAN30 (11745921_a_at) / Fold change /veh ZSCAN30 (11745921_a_at) / RFU CMKLR1 (11741424_a_at) / Fold change /veh CMKLR1 (11741424_a_at) / RFU LOC101060620 /// MAPK8IP1 (11723275_at) / Fold change /veh LOC101060620 /// MAPK8IP1 (11723275_at) / RFU SPTSSB (11747773_x_at) / Fold change /veh SPTSSB (11747773_x_at) / RFU PRSS12 (11739890_at) / Fold change /veh PRSS12 (11739890_at) / RFU BIN1 (11741810_x_at) / Fold change /veh BIN1 (11741810_x_at) / RFU WNT11 (11732464_a_at) / Fold change /veh WNT11 (11732464_a_at) / RFU C10orf10 (11716521_a_at) / Fold change /veh C10orf10 (11716521_a_at) / RFU C5orf56 (11738089_at) / Fold change /veh C5orf56 (11738089_at) / RFU CYB561 (11721691_x_at) / Fold change /veh CYB561 (11721691_x_at) / RFU ANKRD19P (11752326_a_at) / Fold change /veh ANKRD19P (11752326_a_at) / RFU OR2T12 /// OR2T33 /// OR2T8 (11738714_s_at) / Fold change /veh OR2T12 /// OR2T33 /// OR2T8 (11738714_s_at) / RFU VCAN (11748164_a_at) / Fold change /veh VCAN (11748164_a_at) / RFU JSRP1 (11732532_at) / Fold change /veh JSRP1 (11732532_at) / RFU KRTAP10-11 (11738290_x_at) / Fold change /veh KRTAP10-11 (11738290_x_at) / RFU MYO3A (11730013_a_at) / Fold change /veh MYO3A (11730013_a_at) / RFU EBF3 (11725865_a_at) / Fold change /veh EBF3 (11725865_a_at) / RFU CAMK2N1 (11719241_x_at) / Fold change /veh CAMK2N1 (11719241_x_at) / RFU C5orf56 (11738088_a_at) / Fold change /veh C5orf56 (11738088_a_at) / RFU OLFML3 (11715873_a_at) / Fold change /veh OLFML3 (11715873_a_at) / RFU LOC100653217 /// NTM (11731650_a_at) / Fold change /veh LOC100653217 /// NTM (11731650_a_at) / RFU MAPK11 (11762145_a_at) / Fold change /veh MAPK11 (11762145_a_at) / RFU FIZ1 (11724087_x_at) / Fold change /veh FIZ1 (11724087_x_at) / RFU OASL (11726364_x_at) / Fold change /veh OASL (11726364_x_at) / RFU SOX15 (11748057_x_at) / Fold change /veh SOX15 (11748057_x_at) / RFU CD79A (11719716_a_at) / Fold change /veh CD79A (11719716_a_at) / RFU HIST1H1D (11736915_at) / Fold change /veh HIST1H1D (11736915_at) / RFU CASKIN2 (11723855_a_at) / Fold change /veh CASKIN2 (11723855_a_at) / RFU LOC730098 (11760151_x_at) / Fold change /veh LOC730098 (11760151_x_at) / RFU OR4N2 (11742367_at) / Fold change /veh OR4N2 (11742367_at) / RFU PRRT2 (11749266_a_at) / Fold change /veh PRRT2 (11749266_a_at) / RFU SNX32 (11753110_a_at) / Fold change /veh SNX32 (11753110_a_at) / RFU CDHR5 (11726645_a_at) / Fold change /veh CDHR5 (11726645_a_at) / RFU RCAN1 (11760418_a_at) / Fold change /veh RCAN1 (11760418_a_at) / RFU FAM167A (11723789_a_at) / Fold change /veh FAM167A (11723789_a_at) / RFU FAM26E (11764081_at) / Fold change /veh FAM26E (11764081_at) / RFU ISYNA1 (11749810_s_at) / Fold change /veh ISYNA1 (11749810_s_at) / RFU ACY1 (11761880_at) / Fold change /veh ACY1 (11761880_at) / RFU 11764098_at / Fold change /veh 11764098_at / RFU SAMD14 (11745864_x_at) / Fold change /veh SAMD14 (11745864_x_at) / RFU NPB (11741838_a_at) / Fold change /veh NPB (11741838_a_at) / RFU TMPRSS6 (11731388_a_at) / Fold change /veh TMPRSS6 (11731388_a_at) / RFU KRTAP10-2 (11738614_at) / Fold change /veh KRTAP10-2 (11738614_at) / RFU ARHGAP8 /// PRR5-ARHGAP8 (11727945_x_at) / Fold change /veh ARHGAP8 /// PRR5-ARHGAP8 (11727945_x_at) / RFU KRTAP5-7 /// NADSYN1 (11734609_at) / Fold change /veh KRTAP5-7 /// NADSYN1 (11734609_at) / RFU RASL12 (11751679_a_at) / Fold change /veh RASL12 (11751679_a_at) / RFU CDKN2B (11736163_a_at) / Fold change /veh CDKN2B (11736163_a_at) / RFU PRF1 (11729649_at) / Fold change /veh PRF1 (11729649_at) / RFU, ZNF638 /// ZNF638-IT1 / Fold change vs veh, ZNF638 /// ZNF638-IT1 / RFU, PANK3 / Fold change vs veh, PANK3 / RFU, SH3YL1 / Fold change vs veh, SH3YL1 / RFU, ZEB2 / Fold change vs veh, ZEB2 / RFU, NRIP1 / Fold change vs veh, NRIP1 / RFU, PTTG1IP / Fold change vs veh, PTTG1IP / RFU, CAPN2 / Fold change vs veh, CAPN2 / RFU, MED14 / Fold change vs veh, MED14 / RFU, SNORA58 / Fold change vs veh, SNORA58 / RFU, C1orf63 / Fold change vs veh, C1orf63 / RFU, LRRFIP1 / Fold change vs veh, LRRFIP1 / RFU, NDUFAF7 / Fold change vs veh, NDUFAF7 / RFU, SLC12A2 / Fold change vs veh, SLC12A2 / RFU, IBTK / Fold change vs veh, IBTK / RFU, ESF1 / Fold change vs veh, ESF1 / Fold change vs veh, TMEM50B / RFU, TAOK1 / Fold change vs veh, TAOK1 / RFU, ACBD3 / Fold change vs veh, ACBD3 / RFU, TMA16 / Fold change vs veh, TMA16 / RFU, RWDD3 / Fold change vs veh, RWDD3 / RFU, BCAT1 / Fold change vs veh, BCAT1 / RFU, EDEM3 / Fold change vs veh, EDEM3 / RFU, TMEM33 / Fold change vs veh, TMEM33 / RFU, WDR75 / Fold change vs veh, WDR75 / RFU, AHCTF1 / Fold change vs veh, AHCTF1 / RFU, TFRC / Fold change vs veh, TFRC / RFU, ZDHHC17 / Fold change vs veh, ZDHHC17 / RFU, NOM1 / Fold change vs veh, NOM1 / RFU, ARL8B / Fold change vs veh, ARL8B / RFU, ZBTB11 / Fold change vs veh, ZBTB11 / RFU, TAMM41 / Fold change vs veh, TAMM41 / RFU, KIAA1704 /// LOC100996395 / Fold change vs veh, KIAA1704 /// LOC100996395 / RFU, ING1 / Fold change vs veh, ING1 / RFU, TRMT61B / Fold change vs veh, TRMT61B / RFU, FUBP3 / Fold change vs veh, FUBP3 / RFU, TP53 / Fold change vs veh, TP53 / RFU, TNKS2 / Fold change vs veh, TNKS2 / RFU, ZFP14 / Fold change vs veh, ZFP14 / RFU, ACTR2 / Fold change vs veh, ACTR2 / RFU, PPP3R1 / Fold change vs veh, PPP3R1 / RFU, PIK3R1 / Fold change vs veh, PIK3R1 / RFU, HNRNPA1 / Fold change vs veh, HNRNPA1 / RFU, RNF170 / Fold change vs veh, RNF170 / RFU, ZNF28 / Fold change vs veh, ZNF28 / RFU, RNGTT / Fold change vs veh, RNGTT / RFU, OGT / Fold change vs veh, OGT / RFU, BRD1 / Fold change vs veh, BRD1 / RFU, MARS / Fold change vs veh, MARS / RFU, ZNF655 / Fold change vs veh, ZNF655 / RFU, FAHD1 / Fold change vs veh, FAHD1 / RFU, BDP1 / Fold change vs veh, BDP1 / RFU, LRRCC1 / Fold change vs veh, LRRCC1 / RFU, ARID1A / Fold change vs veh, ARID1A / RFU, ZNF146 / Fold change vs veh, ZNF146 / RFU, ZNF330 / Fold change vs veh, ZNF330 / RFU, GPN3 / Fold change vs veh, GPN3 / RFU, C9orf123 / Fold change vs veh, C9orf123 / RFU, N4BP2L2 / Fold change vs veh, N4BP2L2 / RFU, ARFIP1 / Fold change vs veh, ARFIP1 / RFU, FAM179B / Fold change vs veh, FAM179B / RFU, BCL10 / Fold change vs veh, BCL10 / RFU, UHRF1BP1L / Fold change vs veh, UHRF1BP1L / RFU, BET1 / Fold change vs veh, BET1 / RFU, CNOT2 / Fold change vs veh, CNOT2 / RFU, ZNF268 / Fold change vs veh, ZNF268 / Fold change vs veh, ZNF507 / RFU, DGCR2 / Fold change vs veh, DGCR2 / RFU, WDSUB1 / Fold change vs veh, WDSUB1 / Fold change vs veh, HSP90B1 /// MIR3652 / RFU, ADSS / Fold change vs veh, ADSS / RFU, GK / Fold change vs veh, GK / RFU, ZNF148 / Fold change vs veh, ZNF148 / RFU, TAF9 / Fold change vs veh, TAF9 / RFU, SLC1A5 / Fold change vs veh, SLC1A5 / RFU, SLMO2 / Fold change vs veh, SLMO2 / RFU, ABCC4 / Fold change vs veh, ABCC4 / RFU, LOC101060439 /// RAP1B / Fold change vs veh, LOC101060439 /// RAP1B / RFU, RFX7 / Fold change vs veh, RFX7 / RFU, GTPBP10 / Fold change vs veh, GTPBP10 / RFU, CNEP1R1 / Fold change vs veh, CNEP1R1 / RFU, BIVM-ERCC5 /// ERCC5 / Fold change vs veh, BIVM-ERCC5 /// ERCC5 / RFU, ILF3 / Fold change vs veh, ILF3 / RFU 11762660_at / Fold change /veh 11762660_at / RFU VCAN (11757783_s_at) / Fold change /veh VCAN (11757783_s_at) / RFU DDX43 (11728927_at) / Fold change /veh DDX43 (11728927_at) / RFU KRT8 (11758188_x_at) / Fold change /veh KRT8 (11758188_x_at) / RFU NKD1 (11759106_at) / Fold change /veh NKD1 (11759106_at) / RFU SRD5A1 (11742802_a_at) / Fold change /veh SRD5A1 (11742802_a_at) / RFU TPSAB1 /// TPSB2 (11721975_s_at) / Fold change /veh TPSAB1 /// TPSB2 (11721975_s_at) / RFU GSTM3 (11746129_a_at) / Fold change /veh GSTM3 (11746129_a_at) / RFU IL23R (11737362_x_at) / Fold change /veh IL23R (11737362_x_at) / RFU TMEM51 (11727254_a_at) / Fold change /veh TMEM51 (11727254_a_at) / RFU PIWIL2 (11732686_x_at) / Fold change /veh PIWIL2 (11732686_x_at) / RFU ORM1 (11744905_x_at) / Fold change /veh ORM1 (11744905_x_at) / RFU CCDC152 (11743942_at) / Fold change /veh CCDC152 (11743942_at) / RFU ECM1 (11717891_a_at) / Fold change /veh ECM1 (11717891_a_at) / RFU IL23R (11748794_a_at) / Fold change /veh IL23R (11748794_a_at) / RFU TNFAIP8L3 (11732012_x_at) / Fold change /veh TNFAIP8L3 (11732012_x_at) / RFU MBOAT4 (11741988_at) / Fold change /veh MBOAT4 (11741988_at) / RFU 11764193_at / Fold change /veh 11764193_at / RFU TMEM53 (11763286_at) / Fold change /veh TMEM53 (11763286_at) / RFU MAGEB2 (11727129_at) / Fold change /veh MAGEB2 (11727129_at) / RFU TMEM200A (11744735_a_at) / Fold change /veh TMEM200A (11744735_a_at) / RFU CCDC152 (11751479_a_at) / Fold change /veh CCDC152 (11751479_a_at) / RFU FAM211A (11726209_a_at) / Fold change /veh FAM211A (11726209_a_at) / RFU RGS16 (11746705_a_at) / Fold change /veh RGS16 (11746705_a_at) / RFU VCAN (11755009_s_at) / Fold change /veh VCAN (11755009_s_at) / RFU RHOB (11743442_s_at) / Fold change /veh RHOB (11743442_s_at) / RFU RGS16 (11720943_a_at) / Fold change /veh RGS16 (11720943_a_at) / RFU RGS16 (11720944_at) / Fold change /veh RGS16 (11720944_at) / RFU, VPS4B / Fold change vs veh, VPS4B / RFU, CREB1 / Fold change vs veh, CREB1 / RFU, DNAJC13 / Fold change vs veh, DNAJC13 / RFU, GNAQ / Fold change vs veh, GNAQ / RFU, CDK5R1 / Fold change vs veh, CDK5R1 / RFU, ZRANB3 / Fold change vs veh, ZRANB3 / RFU, CUL4A / Fold change vs veh, CUL4A / RFU, CCNY / Fold change vs veh, CCNY / RFU, UFL1 / Fold change vs veh, UFL1 / RFU, COG3 / Fold change vs veh, COG3 / RFU, DIAPH2 / Fold change vs veh, DIAPH2 / RFU, SKA2 / Fold change vs veh, SKA2 / RFU, AFF3 / Fold change vs veh, AFF3 / RFU, LMF1 / Fold change vs veh, LMF1 / RFU, IPO11 / Fold change vs veh, IPO11 / RFU, DFFB / Fold change vs veh, DFFB / RFU, FOXP1 / Fold change vs veh, FOXP1 / RFU, CARD8 / Fold change vs veh, CARD8 / RFU, STRN3 / Fold change vs veh, STRN3 / RFU, ADK / Fold change vs veh, ADK / RFU, RASSF2 / Fold change vs veh, RASSF2 / RFU, WIPF1 / Fold change vs veh, WIPF1 / RFU, LARP1B / Fold change vs veh, LARP1B / RFU, RASA1 / Fold change vs veh, RASA1 / RFU, RB1 / Fold change vs veh, RB1 / RFU, PPFIA1 / Fold change vs veh, PPFIA1 / RFU, MAT2A / Fold change vs veh, MAT2A / RFU, CCT5 / Fold change vs veh, CCT5 / RFU, WDR92 / Fold change vs veh, WDR92 / RFU, CUX1 / Fold change vs veh, CUX1 / RFU, TTC7A / Fold change vs veh, TTC7A / RFU, TMEM135 / Fold change vs veh, TMEM135 / RFU, DEPTOR / Fold change vs veh, DEPTOR / RFU, CPM / Fold change vs veh, CPM / RFU, DNAJB6 / Fold change vs veh, DNAJB6 / RFU, CACNA2D3 / Fold change vs veh, CACNA2D3 / RFU, DTX4 / Fold change vs veh, DTX4 / RFU, TFCP2 / Fold change vs veh, TFCP2 / RFU, GMCL1 /// GMCL1P1 / Fold change vs veh, GMCL1 /// GMCL1P1 / RFU, AEBP2 / Fold change vs veh, AEBP2 / RFU, SNHG1 /// SNORD22 /// SNORD25 /// SNORD26 /// SNORD27 /// SNORD28 /// SNORD29 /// SNORD31 / Fold change vs veh, SNHG1 /// SNORD22 /// SNORD25 /// SNORD26 /// SNORD27 /// SNORD28 /// SNORD29 /// SNORD31 / Fold change (Aza/veh), C12orf56 (ProbeSet 11735607_a_at) / Fold change (ACY-1035/veh), C12orf56 (ProbeSet 11735607_a_at) / Fold change (Aza/veh), FGFR1OP (ProbeSet 11751329_s_at) / Fold change (ACY-1035/veh), FGFR1OP (ProbeSet 11751329_s_at) / Fold change (Aza/veh), VPS36 (ProbeSet 11739960_a_at) / Fold change (ACY-1035/veh), VPS36 (ProbeSet 11739960_a_at) / RFU SYPL1 (11715823_x_at) / Fold change /veh SYPL1 (11715823_x_at) / RFU IGFBP7 (11715501_s_at) / Fold change /veh IGFBP7 (11715501_s_at) / RFU REEP3 (11722064_at) / Fold change /veh REEP3 (11722064_at) / RFU IGLL1 (11728026_x_at) / Fold change /veh IGLL1 (11728026_x_at): dose or concentration left out as unconfirmed
# Conditions: MV-4-11 cells, 48 hours
compound,measurement,value
Nc1ncn([C@@H]2O[C@H](CO)[C@@H](O)[C@H]2O)c(=O)n1 [azacitidine],Fold change /veh LOC100653217 /// NTM (11731650_a_at),1.16
